What was measured:
COX-2 = target: T1, COX-2 (Homo sapiens, UniProt P35354); experiment: COX-2 fluorometric inhibitor screening kit (BioVision); format: biochemical
T1 construct: purchased BioVision
T1 sequence (P35354 18-604): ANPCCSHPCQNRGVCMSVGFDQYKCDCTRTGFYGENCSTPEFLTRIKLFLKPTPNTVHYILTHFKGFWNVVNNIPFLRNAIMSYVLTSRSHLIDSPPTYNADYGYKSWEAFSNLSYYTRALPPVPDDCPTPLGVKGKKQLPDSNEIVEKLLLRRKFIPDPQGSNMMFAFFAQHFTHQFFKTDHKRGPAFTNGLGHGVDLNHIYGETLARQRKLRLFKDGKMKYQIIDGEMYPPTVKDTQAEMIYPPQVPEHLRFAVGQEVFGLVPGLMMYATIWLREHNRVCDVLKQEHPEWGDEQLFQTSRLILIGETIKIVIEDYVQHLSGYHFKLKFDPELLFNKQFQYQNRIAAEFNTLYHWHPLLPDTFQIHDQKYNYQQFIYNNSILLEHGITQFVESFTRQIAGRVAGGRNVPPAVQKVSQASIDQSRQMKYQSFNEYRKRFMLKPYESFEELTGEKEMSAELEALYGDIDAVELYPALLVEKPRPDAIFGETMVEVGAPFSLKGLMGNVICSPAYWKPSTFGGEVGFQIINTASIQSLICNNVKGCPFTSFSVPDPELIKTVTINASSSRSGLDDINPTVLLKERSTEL
Protocol: (§1) To conduct the inhibition assay, the kit components were prepared as follows: The COX-1/COX-2 enzyme solutions were created by reconstituting the lyophilized powder with 110 μL of ddH2O. A diluted COX cofactor was formed by combining a COX assay buffer (398 μL) and a COX cofactor (2 μL). The arachidonic acid/NaOH solution was diluted with 5 μL of arachidonic acid, 5 μL of NaOH, and 90 μL of ddH2O. These solutions were combined to generate the reaction mixture (80 μL) for each well, consisting of the COX assay buffer (76 μL), the COX probe (1 μL), the diluted COX cofactor (2 μL), and the COX-1/COX-2 enzyme solution (1 μL). Test compounds (10 μL) were added, followed by incubation for 5–10 min at 25 °C. To […] the reaction, 10 μL of diluted arachidonic acid/NaOH solution was added. […] The assay was performed in quadruplicate with a blank and control, testing all inhibitor concentrations. The mean ± standard deviation (SD) of the percentage inhibition results were calculated, and IC50 values were determined using GraphPad PRISM software (version 5.0) by plotting the percentage inhibition against the log concentration. Additionally, the selectivity index (SI) was calculated by dividing IC50(COX-1) by IC50(COX-2).

COX-1 = target: T2, COX-1 (Ovis aries, UniProt P05979); experiment: COX-1 fluorometric inhibitor screening kit (BioVision); format: biochemical
T2 construct: purchased
T2 sequence (P05979 25-600): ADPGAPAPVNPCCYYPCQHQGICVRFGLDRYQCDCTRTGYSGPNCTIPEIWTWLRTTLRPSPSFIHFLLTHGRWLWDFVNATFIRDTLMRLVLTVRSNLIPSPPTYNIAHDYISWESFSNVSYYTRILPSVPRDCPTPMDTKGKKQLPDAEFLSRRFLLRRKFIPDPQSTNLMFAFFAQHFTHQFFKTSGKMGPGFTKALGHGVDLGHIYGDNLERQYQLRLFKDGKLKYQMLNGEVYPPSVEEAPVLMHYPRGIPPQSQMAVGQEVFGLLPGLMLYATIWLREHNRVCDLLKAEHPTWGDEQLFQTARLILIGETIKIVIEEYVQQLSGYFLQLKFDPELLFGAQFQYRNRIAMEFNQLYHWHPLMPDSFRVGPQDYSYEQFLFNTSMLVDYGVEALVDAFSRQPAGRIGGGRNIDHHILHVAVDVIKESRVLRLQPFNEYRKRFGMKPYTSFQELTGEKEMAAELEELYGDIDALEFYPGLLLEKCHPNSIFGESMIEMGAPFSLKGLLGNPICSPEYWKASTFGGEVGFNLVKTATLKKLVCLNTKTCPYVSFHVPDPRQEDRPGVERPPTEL
Protocol: as §1

[1] = 1 μM compound, mean ± SD, quadruplicate
[2] = 10 μM compound, mean ± SD, quadruplicate

Row | SMILES | COX-2% Inhibition 1 μM (COX-2; [1]) | COX-2% Inhibition 10 μM (COX-2; [2]) | experimental activity on COX-2 (pIC50) (COX-2; BioVision's kit protocol) | COX subtype selectivity (COX-2; COX-1 vs COX-2, classification in conclusions) | IC50 (COX-2; fluorometric kit) | COX-1% Inhibition 1 μM (COX-1; [1]) | COX-1% Inhibition 10 μM (COX-1; [2]) | experimental activity on COX-1 (pIC50) (COX-1; BioVision's kit protocol) | IC50 (COX-1; fluorometric kit) | inhibition at 1 µM (COX-2; read-out: COX-2% Inhibition 1 μM) | inhibition at 10 µM (COX-2; read-out: COX-2% Inhibition 10 μM)
1 | CCOC(=O)c1cc(-c2c(OC)cccc2OC)n(CC(=O)O)c1C [Compound 4g] | 83.033 ± 1.878% | 90.967 ± 2.022% | 6.7258 | nonselective inhibitors | 0.188 ± 0.008 µM | 84.517 ± 2.036% | 92.366 ± 2.731% | 6.93 | 0.117 ± 0.005 µM |  | 
2 | CS(=O)(=O)Nc1ccc([N+](=O)[O-])cc1Oc1ccccc1 [nimesulide, reference compound] |  |  |  |  |  |  |  |  |  | 89.6 ± 1.05% | 97.8 ± 1.21%
